According to patent publication US11034694B2, “Substituted isoindolin-1-ones and 2,3-dihydro-1H-pyrrolo[3,4-c]pyridin-1-ones as HPK1 antagonists” (Nimbus Saturn, Inc., priority 2019, dated 2021):

Target: HPK1 (Homo sapiens (Human), UniProt Q92918)
Experiment: HPK1 biochemical enzyme assay (microfluidic mobility shift assay)
Details: 1 mM ATP; 1.5 nM HPK1; 30 min preincubation, 60 min reaction; Caliper EZ Reader; read-out: HPK1 1000UMATP caliper IC50
Protocol: HPK1 biochemical enzyme assay: HPK1 enzyme inhibition was measured using a microfluidic mobility shift assay. […] Test compounds were titrated in ten point curves (top final assay concentration 3 μM), and preincubated with enzyme/substrate mix for 30 min prior to initiation of the reaction by addition of ATP (1 mM final concentration) and substrate (1 μM final concentration; Carna Biosciences) diluted in assay buffer supplemented by MgCl2 (final assay concentration of 5 mM). Following 60 min incubation at RT, the reaction was terminated by addition of 60 μl/well termination buffer (Carna Biosciences) and signal determination using a Caliper EZ Reader (Perkin Elmer, UK).

Sequence of HPK1 (Q92918 whole entry): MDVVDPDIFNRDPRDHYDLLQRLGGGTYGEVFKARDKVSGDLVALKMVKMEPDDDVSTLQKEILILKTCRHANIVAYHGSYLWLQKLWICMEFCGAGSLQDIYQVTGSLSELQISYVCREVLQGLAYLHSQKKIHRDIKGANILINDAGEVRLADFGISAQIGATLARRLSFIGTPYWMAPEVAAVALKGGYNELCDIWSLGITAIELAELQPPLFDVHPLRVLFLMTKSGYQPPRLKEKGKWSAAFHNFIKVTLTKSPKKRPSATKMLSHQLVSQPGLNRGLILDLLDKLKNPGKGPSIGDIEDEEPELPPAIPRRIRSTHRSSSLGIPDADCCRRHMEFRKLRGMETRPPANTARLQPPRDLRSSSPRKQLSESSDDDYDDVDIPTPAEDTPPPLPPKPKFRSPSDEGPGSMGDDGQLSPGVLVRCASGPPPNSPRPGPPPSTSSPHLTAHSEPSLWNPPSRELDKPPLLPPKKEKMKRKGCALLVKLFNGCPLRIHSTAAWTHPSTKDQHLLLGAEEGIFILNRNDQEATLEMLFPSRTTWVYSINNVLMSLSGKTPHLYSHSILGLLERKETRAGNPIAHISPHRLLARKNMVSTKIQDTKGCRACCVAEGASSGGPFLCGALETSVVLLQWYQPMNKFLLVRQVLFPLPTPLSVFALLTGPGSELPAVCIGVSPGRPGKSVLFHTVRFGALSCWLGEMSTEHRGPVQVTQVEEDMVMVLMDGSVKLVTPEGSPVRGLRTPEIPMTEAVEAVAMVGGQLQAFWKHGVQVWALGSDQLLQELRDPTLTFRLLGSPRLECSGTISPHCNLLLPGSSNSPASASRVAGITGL

- IC50: < 0.1 µM
SMILES: O=C1NCc2c(-c3cnc4cc(F)ccn34)ccc(Nc3ccc(N4CC5CCC(C4)C5O)cn3)c21 (stereo not shown) [I-405, 4-(7-fluoroimidazo [1,2-a]pyridin-3-yl)-7-((5-(8-hydroxy-3-azabicyclo [3.2.1]octan-3-yl)pyridin-2-yl)amino)isoin-dolin-1-one]
